Measured values: ChEMBL document CHEMBL1135674, “A new series of estrogen receptor modulators that display selectivity for estrogen receptor beta” (J Med Chem, 2002)
Active and inactive are the calls of the source. The rule behind the calls is not given here.

Columns and labels:
Estrogen receptor beta [1] = target: T1, Estrogen receptor beta (Homo sapiens, UniProt Q92731); settings: T47D
Estrogen receptor beta [2] = target: T1, Estrogen receptor beta
Estrogen receptor [3] = target: T2, Estrogen receptor (Homo sapiens, UniProt P03372)
T2 sequence (P03372 whole entry): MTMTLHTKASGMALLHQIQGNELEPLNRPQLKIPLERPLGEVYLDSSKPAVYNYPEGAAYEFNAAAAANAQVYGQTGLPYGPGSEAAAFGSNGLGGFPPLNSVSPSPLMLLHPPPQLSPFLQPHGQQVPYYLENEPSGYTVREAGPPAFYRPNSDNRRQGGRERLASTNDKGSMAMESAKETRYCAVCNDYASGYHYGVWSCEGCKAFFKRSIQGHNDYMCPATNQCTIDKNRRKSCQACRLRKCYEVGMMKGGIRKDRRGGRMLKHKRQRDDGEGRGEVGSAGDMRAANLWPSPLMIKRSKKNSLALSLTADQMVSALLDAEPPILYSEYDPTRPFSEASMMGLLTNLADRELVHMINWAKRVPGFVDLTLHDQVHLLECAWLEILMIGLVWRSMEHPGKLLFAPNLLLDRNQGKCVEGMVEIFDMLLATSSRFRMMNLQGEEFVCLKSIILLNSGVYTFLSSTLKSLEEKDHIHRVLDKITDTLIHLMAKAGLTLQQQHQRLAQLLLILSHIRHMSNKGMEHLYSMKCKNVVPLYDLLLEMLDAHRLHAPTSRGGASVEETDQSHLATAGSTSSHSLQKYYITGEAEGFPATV

Estrogen receptor beta [4] = target: T1, Estrogen receptor beta; remark: listed apart in the source
Estrogen receptor [5] = target: T2, Estrogen receptor; remark: listed apart in the source
Estrogen receptor [6] = target: T2, Estrogen receptor; remark: listed apart in the source
Estrogen receptor beta [7] = target: T1, Estrogen receptor beta; settings: T47D; remark: listed apart in the source
Estrogen receptor beta [8] = target: T1, Estrogen receptor beta; settings: T47D, 10e-4 M

T1 sequence (Q92731 whole entry): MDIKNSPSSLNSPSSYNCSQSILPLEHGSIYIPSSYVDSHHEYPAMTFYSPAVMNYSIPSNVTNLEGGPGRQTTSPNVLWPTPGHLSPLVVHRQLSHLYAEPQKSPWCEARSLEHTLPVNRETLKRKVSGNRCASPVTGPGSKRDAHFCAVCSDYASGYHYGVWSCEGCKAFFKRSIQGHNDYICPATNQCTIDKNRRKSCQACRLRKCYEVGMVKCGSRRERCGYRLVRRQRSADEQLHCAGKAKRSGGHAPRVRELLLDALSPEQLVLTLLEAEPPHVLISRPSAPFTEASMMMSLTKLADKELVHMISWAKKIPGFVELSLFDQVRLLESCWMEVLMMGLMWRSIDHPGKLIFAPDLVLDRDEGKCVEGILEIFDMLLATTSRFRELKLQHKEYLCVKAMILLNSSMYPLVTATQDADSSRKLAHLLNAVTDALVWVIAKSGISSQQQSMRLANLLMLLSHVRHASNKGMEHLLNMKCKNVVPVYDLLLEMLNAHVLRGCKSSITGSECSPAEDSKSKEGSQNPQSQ

Oc1ccc(CCNc2nc(SCCCc3ccc(Cl)cc3)nc(N3CCNCC3)n2)cc1
IA (Estrogen receptor beta [1]): inactive

CN(CCCc1ccc(Cl)cc1)c1nc(NCCc2ccc(O)cc2)nc(N2CCN(Cc3cccnc3)CC2)n1
Ki (Estrogen receptor beta [2]): 35 nM

CCC(=O)CCN1CCN(c2nc(NCCc3ccc(O)cc3)nc(N(C)CCCc3ccc(Cl)cc3)n2)CC1
Ki (Estrogen receptor [3]): 250 nM | Ki (Estrogen receptor beta [2]): 40 nM

CN1CCN(c2nc(NCCCc3ccccc3)nc(NCCc3cccc(O)c3)n2)CC1
Ki (Estrogen receptor [3]): > 10000 nM | Ki (Estrogen receptor beta [2]): 4250 nM

Oc1ccc(CCNc2nc(NCCCc3ccc(Cl)cc3)nc(N3CCNCC3)n2)cc1
Ki (Estrogen receptor [3]): 200 nM | Ki (Estrogen receptor beta [2]): 55 nM

Cc1nc(CN2CCN(c3nc(NCCc4ccc(O)cc4)nc(N(C)CCCc4ccc(Cl)cc4)n3)CC2)cs1
IC50 (Estrogen receptor beta [4]): 5 nM | Ki (Estrogen receptor beta [2]): 25 nM | IA (Estrogen receptor beta [1]): inactive

CCN(CCCc1ccc(Cl)cc1)c1nc(NCCc2ccc(O)cc2)nc(N2CCNCC2)n1
Ki (Estrogen receptor [3]): 830 nM | Ki (Estrogen receptor beta [2]): 100 nM

CN(CCCc1ccc(Cl)cc1)c1nc(NCCc2ccc(O)cc2)nc(N2CCN(S(=O)(=O)Cc3ccccc3)CC2)n1
Ki (Estrogen receptor [3]): 1450 nM | Ki (Estrogen receptor beta [2]): 490 nM

COc1ccc(C(=O)N2CCN(c3nc(NCCc4ccc(O)cc4)nc(N(C)CCCc4ccc(Cl)cc4)n3)CC2)cc1
Ki (Estrogen receptor [3]): 1130 nM | Ki (Estrogen receptor beta [2]): 110 nM

CN1CCN(c2nc(NCCCc3ccccc3)nc(NC3CCc4cc(O)ccc4C3)n2)CC1 (stereo not given)
Ki (Estrogen receptor [3]): 1000 nM | Ki (Estrogen receptor beta [2]): 170 nM

CC(C)S(=O)(=O)N1CCN(c2nc(NCCc3ccc(O)cc3)nc(N(C)CCCc3ccc(Cl)cc3)n2)CC1
Ki (Estrogen receptor [3]): > 10000 nM | Ki (Estrogen receptor beta [2]): 600 nM

CN(CCCc1ccc(Cl)cc1)c1nc(NCCc2ccc(O)cc2)nc(N2CCN(CC(=O)C(C)(C)C)CC2)n1
Ki (Estrogen receptor [3]): 1020 nM | Ki (Estrogen receptor beta [2]): 210 nM

CN(CCCc1ccc(F)c(F)c1)c1nc(NCCc2ccc(O)cc2)nc(N2CCNCC2)n1
Ki (Estrogen receptor [3]): 200 nM | Ki (Estrogen receptor beta [2]): 20 nM

CN1CCN(c2nc(NCCc3ccc(O)cc3)nc(SCCCc3ccccc3)n2)CC1
Ki (Estrogen receptor [3]): 270 nM | Ki (Estrogen receptor beta [2]): 50 nM

CN1CCN(c2nc(NCCCc3ccccc3)nc(N3CCc4cc(O)ccc4C3)n2)CC1
Ki (Estrogen receptor [3]): > 10000 nM | Ki (Estrogen receptor beta [2]): > 10000 nM

CN(CCCc1ccc(Cl)cc1)c1nc(NCCc2ccc(O)cc2)nc(N2CCN(Cc3ccncc3)CC2)n1
Ki (Estrogen receptor [3]): 810 nM | Ki (Estrogen receptor beta [2]): 115 nM

CN(CCCc1ccc(Cl)cc1)c1nc(NCCc2ccc(O)cc2)nc(N2CCN(C(=O)CCc3ccccc3)CC2)n1
Ki (Estrogen receptor [3]): 1050 nM | Ki (Estrogen receptor beta [2]): 110 nM

Cc1ccc(CCCN(C)c2nc(NCCc3ccc(O)cc3)nc(N3CCNCC3)n2)cc1
Ki (Estrogen receptor [3]): 1140 nM | Ki (Estrogen receptor beta [2]): 100 nM

CN1CCN(c2nc(NCCCc3ccccc3)nc(NC3CCc4ccc(O)cc4C3)n2)CC1 (stereo not given)
Ki (Estrogen receptor [3]): > 10000 nM | Ki (Estrogen receptor beta [2]): > 10000 nM

C[C@@H]1CN(c2nc(NCCc3ccc(O)cc3)nc(N(C)CCCc3ccc(Cl)cc3)n2)C[C@H](C)N1
Ki (Estrogen receptor [3]): 60 nM | Ki (Estrogen receptor beta [2]): 15 nM

Oc1ccc(CCNc2nc(SCCOc3ccc(Cl)cc3)nc(N3CCNCC3)n2)cc1
Ki (Estrogen receptor [3]): 570 nM | Ki (Estrogen receptor beta [2]): 90 nM

CN1CCN(c2nc(NCCCc3ccccc3)nc(NCc3ccc(O)cc3)n2)CC1
Ki (Estrogen receptor [3]): 5130 nM | Ki (Estrogen receptor beta [2]): 3690 nM

CN(CCCc1ccc(Cl)cc1)c1nc(NCCc2ccc(O)cc2)nc(N2CCN(S(=O)(=O)/C=C/c3ccccc3)CC2)n1
Ki (Estrogen receptor [3]): 1300 nM | Ki (Estrogen receptor beta [2]): 225 nM

CN(CCCc1ccc(Cl)cc1)c1nc(NCCc2ccc(O)cc2)nc(N2CCN(C3CCCC3)CC2)n1
Ki (Estrogen receptor [3]): 180 nM | Ki (Estrogen receptor beta [2]): 40 nM

CN1CCN(c2nc(NCCc3ccc(O)cc3)nc(OCCCc3ccccc3)n2)CC1
Ki (Estrogen receptor [3]): 2400 nM | Ki (Estrogen receptor beta [2]): 1000 nM

CN(CCCc1ccc(Cl)cc1)c1nc(NCCc2ccc(O)cc2)nc(N2CCN(C(=O)Nc3ccc(Cl)cc3)CC2)n1
Ki (Estrogen receptor [3]): 855 nM | Ki (Estrogen receptor beta [2]): 425 nM

CN(CCCc1ccc(F)cc1)c1nc(NCCc2ccc(O)cc2)nc(N2CCNCC2)n1
IC50 (Estrogen receptor [5]): 240 nM | Ki (Estrogen receptor [3]): 380 nM | IC50 (Estrogen receptor beta [4]): 15 nM | Ki (Estrogen receptor beta [2]): 15 nM | IA (Estrogen receptor beta [1]): inactive | EC50 (Estrogen receptor [6]): 200 nM

CN(C)C(=O)CN1CCN(c2nc(NCCc3ccc(O)cc3)nc(N(C)CCCc3ccc(Cl)cc3)n2)CC1
Ki (Estrogen receptor [3]): 3000 nM | Ki (Estrogen receptor beta [2]): 270 nM

CN(CCCc1ccc(Cl)cc1)c1nc(NCCc2ccc(O)cc2)nc(N2CCN(C(=O)COc3ccccc3)CC2)n1
Ki (Estrogen receptor [3]): 570 nM | Ki (Estrogen receptor beta [2]): 100 nM

CN(CCCc1ccc(Cl)cc1)c1nc(NCCc2ccc(O)cc2)nc(N2CCN(C(=O)N3CCOCC3)CC2)n1
Ki (Estrogen receptor [3]): 2360 nM | Ki (Estrogen receptor beta [2]): 400 nM

CCN(CC)C(=O)N1CCN(c2nc(NCCc3ccc(O)cc3)nc(N(C)CCCc3ccc(Cl)cc3)n2)CC1
Ki (Estrogen receptor [3]): > 10000 nM | Ki (Estrogen receptor beta [2]): 790 nM

CN(CCCc1ccc(Cl)cc1)c1nc(NCCc2ccc(O)cc2)nc(N2CCN(c3ccccc3)CC2)n1
Ki (Estrogen receptor [3]): 6320 nM | Ki (Estrogen receptor beta [2]): 890 nM

C=CCN1CCN(c2nc(NCCc3ccc(O)cc3)nc(N(C)CCCc3ccc(Cl)cc3)n2)CC1
Ki (Estrogen receptor [3]): 360 nM | Ki (Estrogen receptor beta [2]): 30 nM

CN(CCCc1ccc(C#N)cc1)c1nc(NCCc2ccc(O)cc2)nc(N2CCNCC2)n1
Ki (Estrogen receptor [3]): 570 nM | Ki (Estrogen receptor beta [2]): 90 nM

CN(CCCc1ccc(Cl)cc1)c1nc(NCCc2ccc(O)cc2)nc(N2CCNCC2)n1
IC50 (Estrogen receptor [5]): 110 nM | Ki (Estrogen receptor [3]): 300 nM | IC50 (Estrogen receptor beta [4]): 5 nM | Ki (Estrogen receptor beta [2]): 15 nM | IA (Estrogen receptor beta [7]): inactive | EC50 (Estrogen receptor [6]): 180 nM

CN(CCCc1ccc(Cl)cc1)c1nc(NCCc2ccc(O)cc2)nc(N2C[C@@H]3C[C@H]2CN3)n1
Ki (Estrogen receptor [3]): 2280 nM | Ki (Estrogen receptor beta [2]): 105 nM

Oc1ccc(CCNc2nc(NCCCc3ccccc3)nc(N3CCNCC3)n2)cc1
Ki (Estrogen receptor [3]): 1380 nM | Ki (Estrogen receptor beta [2]): 200 nM

O=C(c1ccc(OCCN2CCCCC2)cc1)c1c(-c2ccc(O)cc2)sc2cc(O)ccc12
IA (Estrogen receptor beta [8]): inactive

CN(C[C@@H]1C[C@@H]1c1ccccc1)c1nc(NCCc2ccc(O)cc2)nc(N2CCNCC2)n1 (relative stereo)
IA (Estrogen receptor beta [1]): inactive

CN(CCCc1ccc(Cl)cc1)c1nc(NCCc2ccc(O)cc2)nc(N2CCN(CCO)CC2)n1
IC50 (Estrogen receptor [5]): 30 nM | Ki (Estrogen receptor [3]): 395 nM | IC50 (Estrogen receptor beta [4]): 15 nM | Ki (Estrogen receptor beta [2]): 15 nM | IA (Estrogen receptor beta [1]): inactive | EC50 (Estrogen receptor [6]): 180 nM

CN(CCCc1ccc(C(F)(F)F)cc1)c1nc(NCCc2ccc(O)cc2)nc(N2CCNCC2)n1
Ki (Estrogen receptor [3]): 480 nM | Ki (Estrogen receptor beta [2]): 75 nM

CN1CCN(c2nc(NCCCc3ccccc3)nc(NCCc3ccc(O)cc3)n2)CC1
Ki (Estrogen receptor [3]): 3240 nM | Ki (Estrogen receptor beta [2]): 490 nM

CN(CCOc1ccc(Cl)cc1)c1nc(NCCc2ccc(O)cc2)nc(N2CCNCC2)n1
Ki (Estrogen receptor [3]): 1000 nM | Ki (Estrogen receptor beta [2]): 170 nM

CN1CCN(c2nc(NCCc3ccc(O)cc3)nc(NC3CCc4ccccc43)n2)CC1 (stereo not given)
Ki (Estrogen receptor [3]): > 10000 nM | Ki (Estrogen receptor beta [2]): > 10000 nM

CN(CCCc1ccc(Cl)cc1)c1nc(NCCc2ccc(O)cc2)nc(N2CCN(Cc3ccccc3)CC2)n1
Ki (Estrogen receptor [3]): 120 nM | Ki (Estrogen receptor beta [2]): 8 nM

CN(CCCc1ccc(Cl)cc1Cl)c1nc(NCCc2ccc(O)cc2)nc(N2CCNCC2)n1
Ki (Estrogen receptor [3]): 125 nM | Ki (Estrogen receptor beta [2]): 25 nM

CN(CCCc1ccc(Cl)cc1)c1nc(NCCc2ccc(O)cc2)nc(N2CCN(CC(=O)c3ccccc3)CC2)n1
Ki (Estrogen receptor [3]): 2040 nM | Ki (Estrogen receptor beta [2]): 200 nM

CN(CCCc1ccc2c(c1)OCO2)c1nc(NCCc2ccc(O)cc2)nc(N2CCNCC2)n1
Ki (Estrogen receptor [3]): 560 nM | Ki (Estrogen receptor beta [2]): 30 nM

Oc1ccc(CCNc2nc(NC/C=C/c3ccccc3)nc(N3CCNCC3)n2)cc1
Ki (Estrogen receptor [3]): 6870 nM | Ki (Estrogen receptor beta [2]): 4200 nM

Oc1ccc(CCNc2nc(NCCc3ccccc3)nc(N3CCNCC3)n2)cc1
Ki (Estrogen receptor [3]): 2370 nM | Ki (Estrogen receptor beta [2]): 1750 nM

CN1CCN(c2nc(NCCc3ccc(O)cc3)nc(N(C)CCCc3ccc(Cl)cc3)n2)CC1
Ki (Estrogen receptor [3]): 145 nM | Ki (Estrogen receptor beta [2]): 15 nM

CN(CCCc1ccc(Cl)cc1)c1nc(NCCc2ccc(O)cc2)nc(N2CCN(Cc3ccccn3)CC2)n1
Ki (Estrogen receptor beta [2]): 50 nM

CN(CCCC1CCCCC1)c1nc(NCCc2ccc(O)cc2)nc(N2CCNCC2)n1
Ki (Estrogen receptor [3]): 1420 nM | Ki (Estrogen receptor beta [2]): 820 nM

CN(CCCc1ccccc1Cl)c1nc(NCCc2ccc(O)cc2)nc(N2CCNCC2)n1
Ki (Estrogen receptor [3]): 680 nM | Ki (Estrogen receptor beta [2]): 40 nM

CN1CCN(c2nc(NCCCCc3ccccc3)nc(NCCc3ccc(O)cc3)n2)CC1
Ki (Estrogen receptor [3]): 415 nM | Ki (Estrogen receptor beta [2]): 490 nM

CN1CCN(c2nc(NCCCc3ccccc3)nc(N3CCCC(c4ccc(O)cc4)C3)n2)CC1 (stereo not given)
Ki (Estrogen receptor [3]): > 10000 nM | Ki (Estrogen receptor beta [2]): > 10000 nM
